Laboratory results published in patent US20210113733A1, “FIBROUS WOUND DRESSING COMPRISING AN ANTISEPTIC” (Coloplast A/S, priority 2018, published 2021).

Assay: Octenidine extractable from impregnated hydrophilic polyurethane foam, no surfactant
Format: physicochemical
Settings: for Release % water: 24 h extraction in water, UV 285 nm
Description: Discs of hydrophilic polyurethane foam were impregnated by applying a known volume of octenidine-containing solution to the surface of the foam and letting it soak into the foam matrix in a liquid:foam ratio which allowed the foam to be saturated with liquid. Afterwards, the impregnated foam was dried at RT overnight.
The dried foam disc was immersed in the extraction media for 24 h and the extracted octenidine concentration was determined by UV at 285 nm

Release % phosphate buffer (23 mM) (plain foam impregnated with 0.1 w % OCT solution, 24 h extraction): 7% | Release % water (plain foam impregnated with 0.1 w % OCT solution): 5% | Release % water (plain foam impregnated with 0.5 w % OCT solution): 1.5% | Release % water (plain foam impregnated with 1.0 w % OCT solution): 1.5%
Structure (SMILES): CCCCCCCCN=c1ccn(CCCCCCCCCCn2ccc(=NCCCCCCCC)cc2)cc1 [Octenidine, octenidine]
